According to patent US5700789A, “Antiallergic composition comprising a phosphoric diester compound” (Senju Pharmaceutical Co., Ltd., priority 1995, dated 1997):
Structures can show the parent of a compound that is named as a salt.

What was measured:
[1] = Acute toxicity (LD50) in rats; settings: rat, in vivo, iv; i.v. (rats)
[2] = tested on: Type III allergic conjunctivitis; assay: Type III allergic conjunctivitis in rats (rat antirabbit serum injected subconjunctivally); format: in vivo; settings: 5 μl/eye, 6 instillations, 0.1% EPC-Na or 0.1% as dexamethasone, wet weight 0.5 hr after last instillation, mean ± S.D. (n = 4), * p<0.001 vs control
Protocol: The effect of the compound of the invention on Type III allergic conjunctivitis was evaluated.
(1) 0.1% EPC-Na (dissolved in physiological saline)
(2) 0.15% dexamethasone sodium metasulfobenzoate
(Visualin Ophthalmic Solution (registered trademark, Senju Pharmaceutical Co. Ltd.) (0.1% as dexamethasone, hereinafter referred to briefly as dexamethasone)
The rats were divided into three groups, namely a control group, an EPC-Na group and a dexamethasone group, and 30 μl of rat antirabbit serum was injected subconjunctivally at both lids. Two (2), 1.5, and 0.5 hr before subconjunctival injection and 0.5, 1.5, and 2.5 hr after the injection, rats in the control group were topically treated with 5 μl/eye of physiological saline and those in the test groups were similarly treated with 5 μl/eye of the respective test materials. At 0.5 hr after the last instillation, the rats were sacrificed, the edema weight (wet weight/mg) was determined, and the inhibition rate (%) with respect to the control group was calculated.

[3] = tested on: palpebral edema induced by the histamine releaser Compound 48/80; assay: Palpebral edema induced by the histamine releaser Compound 48/80 in rats (topical instillation); format: in vivo, rat (male SD); settings: 5 μl/eye of 0.1% test material; for Inhibition rate: edema inhibition rate with respect to the control group, 4 hr after Compound 48/80; for Edema weight: male SD rats, 6 instillations, wet weight 4 hr after Compound 48/80, * p<0.001 vs control
Protocol: The effect of the compound of the invention on the palpebral edema induced by the histamine releaser Compound 48/80 (the condensation product of N-methyl-p-methoxy-phenethylamine with formaldehyde) (Sigma Chemical Company) was evaluated.
(1) 0.1% L-ascorbyl DL-α-tocopheryl phosphate sodium (Abbreviation: EPC-Na) (dissolved in physiological saline and adjusted to pH 7.0)
(2) 0.1% diphenhydramine hydrochloride (an antihistaminic) (dissolved in physiological saline)
Method: Male SD rats weighing about 180 g were used.
The rats were divided into three groups, i.e. a control group, an EPC-Na group, and a diphenhydramine HCl group, and 20 μl/eye of 0.008% Compound 48/80 (dissolved in physiological saline) was injected subconjunctivally at both lids to induce palpebral edema. Two (2), 1, and 0.5 hr before subconjunctival injection and 0.5, 1.5, and 2.5 hr after the injection, rats in the control group were topically treated with 5 μl/eye of physiological saline and those in the EPC-Na group and diphenhydramine HCl group were similarly treated with 5 μl/eye of the corresponding test materials. Four (4) hr after injection of Compound 48/80 (1.5 hr after the last instillation), the rats were sacrificed and the edematous portion of the palpebra was excised, its wet weight (mg) was determined, and the edema inhibition rate (%) with respect to the control group was calculated.

| Structure (SMILES) | LD50 [1] | Edema weight [2] | Inhibition rate [3] | Edema weight [3] |
| --- | --- | --- | --- | --- |
| Cc1c(C)c2c(c(C)c1OP(=O)(O)OC1=C(O)[C@@H]([C@@H](O)CO)OC1=O)CCC(C)(CCCC(C)CCCC(C)CCCC(C)C)O2 (mixture of isomers) [EPC-K, L-ascorbyl DL-α-tocopheryl phosphate potassium] | ≥ 100 mg/kg | – | – | – |
| Cc1c(C)c2c(c(C)c1OP(=O)(O)OC1=C(O)[C@@H]([C@@H](O)CO)OC1=O)CCC(C)(CCCC(C)CCCC(C)CCCC(C)C)O2 (mixture of isomers) [EPC-Na, L-ascorbyl DL-α-tocopheryl phosphate sodium] | – | 57.4 ± 8.1 mg | 33.5% | 76.1 ± 11.6 mg |
| C[C@@H]1C[C@H]2[C@@H]3CCC4=CC(=O)C=C[C@]4(C)[C@@]3(F)[C@@H](O)C[C@]2(C)[C@@]1(O)C(=O)COC(=O)c1cccc(S(=O)(=O)O)c1 [Dexamethasone, dexamethasone sodium metasulfobenzoate, reference compound] | – | 58.2 ± 3.8 mg | – | – |
| CN(C)CCOC(c1ccccc1)c1ccccc1 [Diphenhydramine HCl, diphenhydramine hydrochloride, reference compound] | – | – | 44.8% | 63.2 ± 8.2 mg |
